According to article PMC6534212, “Synthesis and biological evaluation of 3–(4-aminophenyl)-coumarin derivatives as potential anti-Alzheimer’s disease agents” (Journal of Enzyme Inhibition and Medicinal Chemistry, 2019):
“Also recorded” adds a separate entry of the source.

Tests used:
[1] = system: zebrafish juveniles; experiment: Model of exercise retardation, death and teratogenicity in zebrafish juveniles made of aluminium trichloride; conditions: for Movement distance: 72 hpe, n=6; for Movement distance / Malformation rate / Mortality rate: mean ± SE; for Malformation rate / Mortality rate: after 72 h, n=90
Description: The 72 hpf zebrafish were placed in a petri dish, and the normal developing juveniles were selected under a microscope in a 12-well plate. The concentration of AlCl3 in the experiment was set to 0, 0.1, 0.5, 1.0, 5.0, 10.0, and 50.0 mg/L (prepared for aquaculture water), three replicate wells were set in each concentration group and then placed in a constant temperature incubator at 28 °C to continue the culture. The continuous drug solution was exposed for 3 days. The different concentrations of AlCl3 and the blank control group were placed in 48-well plates. Each well was juvenile fish developed to 72 h post-exposure (hpe) and added 0.5 mL of culture water and 8 juveniles were set in each experimental group. The well plate was placed in the dark box of the zebrafish behaviour analysis system. The fish was first adapted to 10 min at the beginning of the experiment. The trajectories of the juveniles in each group were collected using zeblab software for 10 min, recorded every 5 min, and exported by software. Then calculate the total distance of each group of zebrafish juveniles. The effects of different concentrations of aluminium trichloride on the death and teratogenicity of zebrafish juveniles were observed by microscopy.

[2] = molecular target: T1, AChE from Electrophorus electricus (Electrophorus electricus, UniProt O42275); experiment: biochemical; assay type: biochemical; conditions: for IC50: AChE from Electrophorus electricus, mean ± SD (n=3); for AChE inhibitory activity (in words): verbal summary of Table 2; for Selectivity AChE/BuChE (in words): verbal summary of SI
T1 construct: purchased Macklin
Description: (§1) In the experiment, 0.05 mol/L phosphate buffered saline (PBS) of pH 8.0 was prepared first, and then the following solutions were prepared: 1.5 mmol/L Acetylthiocholine iodide (ATChI); 0.75 mmol/L 5, 5'-Dithiobis-(2-nitrobenzoic acid) (DTNB, Sigma Aldrich, St. Louis, MO); 0.2 U/mL Acetylcholinesterase (AChE, from […], Macklin); 0.5 U/mL Butyrylcholinesterase (BuChE, from equine serum, Aladdin, Shanghai, China); 1.5 mmol/L S-Butyrylthiocholine iodide (BTChI, Sigma Aldrich, St. Louis, MO). 4% sodium dodecyl sulphate (SDS) was prepared with secondary water. […] All solutions were stored in a refrigerator at 4 °C.
(§2) The AChE/BuChE inhibitory activity of the 3–(4-aminophenyl)-coumarin derivatives was determined by the method of Ellaman[28] with slight modifications. The experiment was divided into control group, sample blank group and sample group. Take a series of test tubes, the reagents were loaded in test tubes at the dose of Table 6. After incubation at 37 °C for 20 min, quickly add 1 mL of 4% SDS to stop the reaction. […] All experiments were run in triplicate. The absorbance was determined by UV spectrophotometer, and the inhibition rate of AChE and the IC50 value of each sample were calculated according to the formula. Inhibition rate % = {[(AC−AS)−ASB]/AC} ×100%, where AC (no sample added) is the absorbance of control group; AS is the absorbance of sample group; ASB (add sample solution but no substrate ATChI added) is the absorbance of sample blank group.

[3] = molecular target: T2, BuChE from equine serum (Equus caballus, UniProt P81908); experiment: biochemical; assay type: biochemical; conditions: BuChE from equine serum; mean ± SD (n=3)
T2 construct: Butyrylcholinesterase (BuChE, from equine serum, Aladdin, Shanghai, China); purchased Aladdin, Shanghai, China; host or cells: equine serum
Description: as §1, §2
The method for determining BuChE is the same as the method for measuring AChE. The sample can be added with reference to Table 6, AChE is changed to BuChE, and the substrate ATChI is changed to substrate BTChI. The order of loading and the amount of loading are the same as Table 6. The absorbance was determined by UV spectrophotometer, and the inhibition rate of BuChE and the IC50 value of each sample were calculated according to the formula. The formula used is the same as AChE.

[4] = system: aluminium trichloride-induced zebrafish juveniles; experiment: Effects of compounds on aluminium trichloride-induced behavioural inhibition of zebrafish juveniles (Zebrobox); conditions: for Total movement distance: mean ± SE, n=8; for Effect on behavioural inhibition of zebrafish induced by aluminium trichloride (in words): compared with the model group
Description: The most suitable modelling concentrations were chosen, and then the effect of the compounds on the behaviour of the aluminium trichloride-induced zebrafish juveniles was explored.
The 72 hpf zebrafish were placed in a petri dish, and the normal developing juveniles were selected under a microscope in a 12-well plate. […] The continuous drug solution was exposed for 3 days. […] Each well was juvenile fish developed to 72 h post-exposure (hpe) and added 0.5 mL of culture water and 8 juveniles were set in each experimental group. The well plate was placed in the dark box of the zebrafish behaviour analysis system. The fish was first adapted to 10 min at the beginning of the experiment. The trajectories of the juveniles in each group were collected using zeblab software for 10 min, recorded every 5 min, and exported by software. Then calculate the total distance of each group of zebrafish juveniles.
The zebrafish with 72 hpf after fertilisation is placed in a petri dish. Under normal conditions, the normal developing juvenile fish are selected in a 12-well plate, and 15 juveniles per hole are set. Control group (0.5% DMSO), model group (5.0 mg/L AlCl3), 5.0 mg/L AlCl3 + test compound 5 μg/mL group, 5.0 mg/L AlCl3 + test compound 10 μg/mL group, 5.0 mg/L AlCl3 + test compound 50 μg/mL group, 5.0 mg/L AlCl3 + test compound 100 μg/mL group, three duplicate wells were set at each concentration. After the administration, the zebrafish was placed in a constant temperature incubator at 28 °C to continue the culture for 3 days. Changing the liquid (aquaculture water) every 24 h and removing dead young fish.

[5] = 5 mg/L compound + 5.0 mg/L AlCl3, 3 days
[6] = 10 mg/L compound + 5.0 mg/L AlCl3, 3 days
[7] = 50 mg/L compound + 5.0 mg/L AlCl3, 3 days
[8] = 100 mg/L compound + 5.0 mg/L AlCl3, 3 days

T2 sequence (P81908 whole entry): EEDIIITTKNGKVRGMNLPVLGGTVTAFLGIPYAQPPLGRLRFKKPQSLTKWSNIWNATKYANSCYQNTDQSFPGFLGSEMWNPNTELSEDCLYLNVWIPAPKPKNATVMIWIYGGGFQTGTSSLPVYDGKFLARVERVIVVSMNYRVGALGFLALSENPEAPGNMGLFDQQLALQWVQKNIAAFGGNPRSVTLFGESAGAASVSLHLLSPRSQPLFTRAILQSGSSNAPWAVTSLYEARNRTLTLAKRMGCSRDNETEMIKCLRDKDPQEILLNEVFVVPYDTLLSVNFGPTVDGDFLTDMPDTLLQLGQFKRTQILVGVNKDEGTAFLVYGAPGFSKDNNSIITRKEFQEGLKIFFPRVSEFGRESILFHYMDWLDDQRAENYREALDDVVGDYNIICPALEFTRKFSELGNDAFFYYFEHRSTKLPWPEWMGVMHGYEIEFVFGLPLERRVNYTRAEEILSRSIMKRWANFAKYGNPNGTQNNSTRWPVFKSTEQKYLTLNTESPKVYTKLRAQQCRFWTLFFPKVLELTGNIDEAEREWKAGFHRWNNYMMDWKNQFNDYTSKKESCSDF
T1 sequence (O42275 24-633): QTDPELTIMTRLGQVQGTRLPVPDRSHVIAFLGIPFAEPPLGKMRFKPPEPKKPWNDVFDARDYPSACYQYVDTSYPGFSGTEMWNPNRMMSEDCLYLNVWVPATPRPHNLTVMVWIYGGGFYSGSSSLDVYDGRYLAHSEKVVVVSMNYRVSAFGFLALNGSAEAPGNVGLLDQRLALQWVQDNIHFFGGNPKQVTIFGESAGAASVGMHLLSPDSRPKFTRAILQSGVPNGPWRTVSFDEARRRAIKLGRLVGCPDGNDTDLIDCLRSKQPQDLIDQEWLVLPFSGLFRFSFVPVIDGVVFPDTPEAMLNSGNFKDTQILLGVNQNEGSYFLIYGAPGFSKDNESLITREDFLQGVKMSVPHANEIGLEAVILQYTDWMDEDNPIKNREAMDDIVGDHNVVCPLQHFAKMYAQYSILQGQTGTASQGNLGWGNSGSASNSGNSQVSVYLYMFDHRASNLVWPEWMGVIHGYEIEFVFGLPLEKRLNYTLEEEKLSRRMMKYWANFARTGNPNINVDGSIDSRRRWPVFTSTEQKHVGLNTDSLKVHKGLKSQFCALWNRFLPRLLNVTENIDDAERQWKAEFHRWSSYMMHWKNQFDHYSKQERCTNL

Structure (SMILES)	IC50 [2] [µM]	SI: selectivity index (IC50 BuChE/IC50 AChE) [2]	AChE inhibitory activity (in words) [2]	IC50 [3] [µM]	Total movement distance [4, 5] [cm]	Total movement distance [4, 6] [cm]	Total movement distance [4, 7] [cm]	Total movement distance [4, 8] [cm]	further results
[Cl][Al]([Cl])[Cl] [AlCl3, aluminium trichloride]									Movement distance ([1]; AlCl3 0.1 mg/L): 292.4 ± 6.7 cm; Malformation rate ([1]; AlCl3 0.1 mg/L): 0.00 ± 0.00%; Mortality rate ([1]; AlCl3 0.1 mg/L): 0.00 ± 0.00%; Movement distance ([1]; AlCl3 0.5 mg/L): 236.8 ± 9.4 cm; Malformation rate ([1]; AlCl3 0.5 mg/L): 0.00 ± 0.00%; Mortality rate ([1]; AlCl3 0.5 mg/L): 0.00 ± 0.00%; Movement distance ([1]; AlCl3 1.0 mg/L): 224.3 ± 10.8 cm; Malformation rate ([1]; AlCl3 1.0 mg/L): 1.11 ± 0.17%; Mortality rate ([1]; AlCl3 1.0 mg/L): 0.00 ± 0.00%; Movement distance ([1]; AlCl3 5.0 mg/L): 181.3 ± 9.6 cm; Malformation rate ([1]; AlCl3 5.0 mg/L): 2.22 ± 0.17%; Mortality rate ([1]; AlCl3 5.0 mg/L): 1.11 ± 0.17%; Movement distance ([1]; AlCl3 10.0 mg/L): 204.6 ± 12.8 cm; Malformation rate ([1]; AlCl3 10.0 mg/L): 16.67 ± 0.29 %; Mortality rate ([1]; AlCl3 10.0 mg/L): 11.11 ± 0.17 %; Death or malformation of zebrafish (in words) ([1]; AlCl3 50.0 mg/L, after 24 h administration): Most of the fish in the 50.0 mg/L group were dead or malformed; Malformation rate ([1]; AlCl3 50.0 mg/L): 100.00 ± 0.00 %; Mortality rate ([1]; AlCl3 50.0 mg/L): 100.00 ± 0.00 %; Death of zebrafish (in words) ([1]; AlCl3 50.0 mg/L, at 48 h): all fish died
COc1cccc2cc(-c3ccc(NC(=O)c4ccc(C(F)(F)F)cc4)cc3)c(=O)oc12 [Compound 4l, 3-[4-(4-trifluoromethyl-benzoylamino)-phenyl]-8-methoxy-coumarin]	5.6 ± 0.132	0.772	moderate to excellent AChE inhibitory activity	4.32 ± 0.685	179.9 ± 10.1	194.6 ± 13.6	211.5 ± 20.2	184.8 ± 11.5	
COc1cccc2cc(-c3ccc(NC(=O)c4ccc(CCl)cc4)cc3)c(=O)oc12 [Compound 4m, 3-[4-(4-chloromethyl-benzoylamino)-phenyl]-8-methoxy-coumarin]	0.091 ± 0.011	452.637	moderate to excellent AChE inhibitory activity	41.2 ± 1.04	198.3 ± 10.1	210.2 ± 6.0	230.8 ± 6.2	247.1 ± 12.3	Selectivity AChE/BuChE (in words) [2]: highly selective for AChE; Effect on total distance of zebrafish juvenile movement (in words) ([4]; at 50.0 and 100.0 μg/mL concentration): significant therapeutic effect; also recorded: significant effects compared with the model group; Effect on behavioural inhibition of zebrafish induced by aluminium trichloride (in words) [4]: certain therapeutic effects; also recorded: could alleviate the behavioural inhibition symptoms
COc1cccc2cc(-c3ccc(NC(=O)c4cccc(Cl)c4Cl)cc3)c(=O)oc12 [Compound 4r, 3-[4-(2,3-dichloro-benzoylamino)-phenyl]-8-methoxy-coumarin]	19.7 ± 2.45	0.220		4.33 ± 0.125	178 ± 11.2	182.4 ± 4.6	196.4 ± 11.7	194.4 ± 9.4	
O=C(Nc1ccc(-c2cc3ccc(O)cc3oc2=O)cc1)c1ccco1 [Compound 5a, 3-[4-(furan-2-formylamino)-phenyl]-7-hydroxy-coumarin]	2.49 ± 0.151	3.842	moderate to excellent AChE inhibitory activity	9.55 ± 0.455	194.2 ± 6.5	188.8 ± 14.7	215.5 ± 17.1	187.2 ± 6.2	
COc1cccc2cc(-c3ccc(NC(=O)c4ccc5ccccc5c4)cc3)c(=O)oc12 [Compound 7b, 3-[4-(2-naphthoylamino)-phenyl]-8-methoxy-coumarin]	0.128 ± 0.011	341.87	moderate to excellent AChE inhibitory activity	43.8 ± 1.97		278.4 ± 11.4	227.4 ± 8.1	272.1 ± 10.4	Selectivity AChE/BuChE (in words) [2]: highly selective for AChE
COc1cccc2cc(-c3ccc(NC(=O)c4cccs4)cc3)c(=O)oc12 [Compound 7d, 3-[4-(thiophene-2-formylamino)-phenyl]-8-methoxy-coumarin]	6.63 ± 0.12	0.700	moderate to excellent AChE inhibitory activity	4.65 ± 0.245	202.9 ± 6.2	208.4 ± 9.7	224.2 ± 9.2	235.4 ± 11.4	Effect on behavioural inhibition of zebrafish induced by aluminium trichloride (in words) [4]: certain therapeutic effects; also recorded: could alleviate the behavioural inhibition symptoms
